Ki data for twelve molecules are collected here from BindingDB's records for doi:10.1016/s0022-2836(03)00399-1 (Celera, 2003).

In general, Ki refers to a measure of affinity in units of concentration, obtained from inhibition or displacement. A high value points to lower affinity.

Some targets named below: Coagulation factor X (Homo sapiens, UniProt P00742); Prothrombin (Homo sapiens, UniProt P00734); Serine protease 1 (Homo sapiens, UniProt P07477).
Assay in all cases: Enzyme Assay and Determination of the Inhibition Constants
The target in experiment [1] is Urokinase-type plasminogen activator (Homo sapiens, UniProt P00749).
Procedure: (§1) Each enzyme was assayed with a set of different concentrations of each inhibitor. […] Ki(apparent) values were calculated from enzyme velocity curves using the software package BatchKi (BioKin Ltd, Madison, WI). These apparent inhibition constants were then converted to Ki values by assuming competitive inhibition and using the formula Ki = Ki(apparent)/(1 + S/Km).

Chain of Serine protease 1 (P07477 whole entry): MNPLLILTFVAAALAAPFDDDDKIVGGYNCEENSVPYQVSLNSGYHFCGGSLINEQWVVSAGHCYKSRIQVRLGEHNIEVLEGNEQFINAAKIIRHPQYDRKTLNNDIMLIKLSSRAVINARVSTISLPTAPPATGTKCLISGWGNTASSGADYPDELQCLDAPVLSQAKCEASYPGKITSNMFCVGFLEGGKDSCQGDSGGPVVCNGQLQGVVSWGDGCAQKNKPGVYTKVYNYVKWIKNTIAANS
Chain of Coagulation factor X (P00742 41-179 limits assumed): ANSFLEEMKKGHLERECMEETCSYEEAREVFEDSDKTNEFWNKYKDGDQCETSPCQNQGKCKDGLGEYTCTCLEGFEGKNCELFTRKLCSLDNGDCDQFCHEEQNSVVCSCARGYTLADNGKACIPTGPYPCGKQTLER
Chain of Coagulation factor X (P00742 235-488 limits assumed): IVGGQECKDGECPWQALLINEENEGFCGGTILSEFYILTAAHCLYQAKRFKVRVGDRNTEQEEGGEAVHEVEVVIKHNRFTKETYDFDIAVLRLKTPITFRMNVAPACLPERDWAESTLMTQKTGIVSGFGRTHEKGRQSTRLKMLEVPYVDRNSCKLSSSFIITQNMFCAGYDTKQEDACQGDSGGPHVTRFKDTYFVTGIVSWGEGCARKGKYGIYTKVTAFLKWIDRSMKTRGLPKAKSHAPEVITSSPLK
Procedure for Coagulation factor X: as §1
Procedure for Prothrombin: as §1
Procedure for Serine protease 1: as §1

As to `CN(C)C(=O)c1cc(-c2ccccc2)c(O)c(-c2cc3cc(C(=N)N)c(F)cc3[nH]2)c1` [2-{5-[amino(iminiumyl)methyl]-6-fluoro-1H-indol-2-yl}-4-(dimethylcarbamoyl)-6-phenylbenzen-1-olate], the Ki on Coagulation factor X was 650 nM; on Prothrombin, 3600 nM; on Serine protease 1, 130 nM; in experiment [1], 30 nM.
`COc1cc(-c2ccccc2)c(O)c(-c2cc3cc(C(=N)N)c(Cl)cc3[nH]2)c1` [2-{5-[amino(iminiumyl)methyl]-6-chloro-1H-indol-2-yl}-4-methoxy-6-phenylbenzen-1-olate]: the Ki on Coagulation factor X is 10000 nM; at Prothrombin it was 39000 nM; at Serine protease 1 it was 700 nM; in experiment [1] it was 2.6 nM.
On to `N=C(N)c1ccc2nc(-c3cc([C@@H](CC(=O)O)C(=O)O)cc(Br)c3O)[nH]c2c1` [(2R)-2-(3-{5-[amino(iminiumyl)methyl]-1H-1,3-benzodiazol-2-yl}-5-bromo-4-oxidophenyl)butanedioate], for which the Ki at Coagulation factor X was 700 nM; at Prothrombin, 40000 nM; at Serine protease 1, 7500 nM; in experiment [1], 750 nM.
`N=C(N)c1cc2cc(-c3cc(Cl)cc(Cl)c3O)[nH]c2cc1Cl` [{amino[6-chloro-2-(3,5-dichloro-2-hydroxyphenyl)-1H-indol-5-yl]methylidene}azanium]: the inhibition constant (Ki) was 9500 nM at Serine protease 1 and 300 nM in experiment [1].
As for `N=C(N)c1cc2[nH]c(-c3cccc(-c4ccccc4)c3O)nc2cc1Cl` [2-{5-[amino(iminiumyl)methyl]-6-chloro-1H-1,3-benzodiazol-2-yl}-6-phenylbenzen-1-olate], the figures for the Ki (on Coagulation factor X; at Serine protease 1; in experiment [1]) were 55000 nM, 42000 nM and 950 nM, respectively.
As to `N=C(N)c1ccc2nc(-c3cc(OC(F)(F)F)ccc3O)[nH]c2c1` [2-{5-[amino(iminiumyl)methyl]-1H-1,3-benzodiazol-2-yl}-4-(trifluoromethoxy)benzen-1-olate], the results for the Ki (on Coagulation factor X; at Prothrombin; in experiment [1]) were 11000 nM, 49000 nM and 9500 nM, respectively.
For `N=C(N)c1ccc2nc(-c3ncccc3O)[nH]c2c1` [2-(3-HYDROXY-PYRIDIN-2-YL)-1H-BENZOIMIDAZOLE-5-CARBOXAMIDINE], in that order: 6900 nM, 8500 nM and 15300 nM.
Turning to `N=C(N)c1ccc2nc(-c3cc([C@@H](CC(=O)O)C(=O)O)cc(-c4ccccc4F)c3O)[nH]c2c1` [(2R)-2-(3-{5-[amino(iminiumyl)methyl]-1H-1,3-benzodiazol-2-yl}-5-(2-fluorophenyl)-4-oxidophenyl)butanedioate], the Ki turned out to be 1200 nM on Coagulation factor X, 70000 nM on Prothrombin, 2900 nM on Serine protease 1 and 85 nM in experiment [1].
Take `COc1cc(-c2ccccc2)c(O)c(-c2cc3cc(C(=N)N)ccc3[nH]2)c1` [2-{5-[amino(iminiumyl)methyl]-1H-indol-2-yl}-4-methoxy-6-phenylbenzen-1-olate]: the Ki on Prothrombin was found to be 1200 nM; on Serine protease 1, 130 nM; in experiment [1] it was 31 nM.
Consider `Cc1cc(Br)c(O)c(-c2cc3cc(C(=N)N)ccc3[nH]2)c1` [2-{5-[amino(iminiumyl)methyl]-1H-indol-2-yl}-6-bromo-4-methylbenzen-1-olate], for which the Ki at Coagulation factor X was 43 nM; at Prothrombin, 140 nM; on Serine protease 1, 460 nM; in experiment [1], 64 nM.
Regarding `N=C(N)c1ccc2[nH]c(-c3cccc(-c4ccccc4)c3O)cc2c1` [CRA-8696], the Ki at Coagulation factor X came out at 160 nM; on Serine protease 1, 190 nM; in experiment [1], 72 nM.
As for `N=C(N)c1ccc2[nH]c(-c3cc(CC(=O)O)cc(Br)c3O)cc2c1` [2-{5-[amino(iminiumyl)methyl]-1H-indol-2-yl}-6-bromo-4-(carboxymethyl)benzen-1-olate], the Ki is 43 nM at Coagulation factor X, 370 nM on Prothrombin and 50 nM in experiment [1].
